# Source: patent US9758492B2, “IDO inhibitors” (Bristol-Myers Squibb Company, priority 2013, dated 2017)
# Target: IDO (Homo sapiens, UniProt P14902)
# Assay: LLE_IDO_ABS_DR (IDO assay)
# IDO, sequence (P14902 whole entry): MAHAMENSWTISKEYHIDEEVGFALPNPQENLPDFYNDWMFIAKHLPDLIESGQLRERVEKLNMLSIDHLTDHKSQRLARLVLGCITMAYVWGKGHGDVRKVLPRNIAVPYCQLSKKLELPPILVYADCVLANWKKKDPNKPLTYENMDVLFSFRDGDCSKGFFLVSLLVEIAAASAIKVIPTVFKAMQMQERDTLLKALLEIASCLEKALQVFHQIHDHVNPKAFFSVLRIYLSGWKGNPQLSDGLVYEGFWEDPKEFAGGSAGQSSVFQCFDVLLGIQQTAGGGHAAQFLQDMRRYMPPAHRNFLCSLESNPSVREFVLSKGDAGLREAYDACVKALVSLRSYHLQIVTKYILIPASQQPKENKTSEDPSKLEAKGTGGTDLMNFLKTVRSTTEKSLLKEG
row,SMILES,IC50 [nM]
1,"Cc1ccc(NC(=O)Nc2cc(-c3ccccc3-c3nnn[nH]3)cc(F)c2N(CC(C)C)CC(C)C)cc1 [Example 5, 1-(4-(Diisobutylamino)-5-fluoro-2′-(1H-tetrazol-5-yl)biphenyl-3-yl)-3-p-tolylurea]",4.05
2,"CC(C)CN(CC(C)C)c1ccc(-c2ccc(F)cc2C(=O)O)cc1NC(=O)Nc1ccccc1Cl [Example 68, 3′-(3-(2-chlorophenyl)ureido)-4′-(diisobutylamino)-4-fluorobiphenyl-2-carboxylic acid]",560
3,"CC(C)CN(CC(C)C)c1ccc(-c2ccccc2-c2nnn[nH]2)cc1NC(=O)NC(C)C [Example 246, 1-(4-(diisobutylamino)-2′-(1H-tetrazol-5-yl)-[1,1′-biphenyl]-3-yl)-3-isopropylurea]",1220
4,"Cc1ccccc1NC(=O)Nc1cc(-c2cccc(F)c2C(=O)O)ccc1N(CC(C)C)CC(C)C [Example 69, 4′-(diisobutylamino)-3-fluoro-3′-(3-o-tolylureido)biphenyl-2-carboxylic acid]",890
5,"O=C(Nc1ccc(OC(F)(F)F)cc1)Nc1cc(-c2ccccc2-c2nnn[nH]2)ccc1N(CCC(F)(F)F)Cc1ccc(F)cc1 [Example 323, 1-(4-((4-fluorobenzyl)(3,3,3-trifluoropropyl)amino)-2′-(1H-tetrazol-5-yl)-[1,1′-biphenyl]-3-yl)-3-(4-(trifluoromethoxy)phenyl)urea]",540
6,"O=C(Nc1ccc(C2CC2)c(F)c1)Nc1cc(-c2ccccc2-c2nnn[nH]2)ccc1N(CCc1ccccc1)CCC(F)(F)F [Example 296, 1-(4-Cyclopropyl-3-fluorophenyl)-3-(4-(phenethyl(3,3,3-trifluoropropyl)amino)-2′-(1H-tetrazol-5-yl)biphenyl-3-yl)urea]",180
7,"O=C(Nc1ccc(C2CC2)cc1)Nc1cc(-c2ccccc2-c2nnn[nH]2)ccc1N(CCc1ccccc1)CCC(F)(F)F [Example 298, 1-(4-cyclopropylphenyl)-3-(4-(phenethyl(3,3,3-trifluoropropyl)amino)-2′-(1H-tetrazol-5-yl)-[1,1′-biphenyl]-3-yl)urea]",80
8,"COCCN(Cc1ccc(Cl)cc1)c1ccc(-c2ccccc2-c2nnn[nH]2)cc1NC(=O)Nc1ccc(C)cc1 [Example 191, 1-(4-((4-chlorobenzyl)(2-methoxyethyl)amino)-2′-(1H-tetrazol-5-yl)-[1,1′-biphenyl]-3-yl)-3-(p-tolyl)urea]",5.79
9,"CC(C)CN(CC(C)C)c1ccc(-c2ccccc2-c2nnn[nH]2)cc1NC(=O)Nc1c(F)cc(F)cc1F [Example 282, 1-(4-(diisobutylamino)-2′-(1H-tetrazol-5-yl)-[1,1′-biphenyl]-3-yl)-3-(2,4,6-trifluorophenyl)urea]",8.2
10,"O=C(Nc1cc(-c2ccccc2-c2nnn[nH]2)ccc1N(CCC(F)(F)F)Cc1ccccn1)Nc1ccccc1C(F)(F)F [Example 345, 1-(4-((pyridin-2-ylmethyl)(3,3,3-trifluoropropyl)amino)-2′-(1H-tetrazol-5-yl)-[1,1′-biphenyl]-3-yl)-3-(2-(trifluoromethyl)phenyl)urea]",820
11,Cc1ccc(NC(=O)Nc2cc(-c3ccccc3-c3nnn[nH]3)ccc2N2CCC(c3ccc(F)cc3)C2)cc1 (stereo not shown) [Example 386],40
12,"Cc1ccc(NC(=O)Nc2cc(-c3ccccc3-c3nnn[nH]3)ccc2N(CC(C)C)C(C)C)cc1 [Example 147, 1-(4-(isobutyl(isopropyl)amino)-2′-(1H-tetrazol-5-yl)biphenyl-3-yl)-3-p-tolylurea]",10
13,"CC(C)CN(CC(C)C)c1ccc(-c2ccccc2-c2nnn[nH]2)cc1NC(=O)Nc1nncs1 [Example 145, 1-(4-(diisobutylamino)-2′-(1H-tetrazol-5-yl)biphenyl-3-yl)-3-(1,3,4-thiadiazol-2-yl)urea]",80
14,Cc1ccc(NC(=O)Nc2cc(-c3ccccc3-c3nnn[nH]3)ccc2N(CC(C)C)CC(F)(F)F)cc1 [Example 475],50
15,"Cc1cc(NC(=O)Nc2cc(-c3ccccc3-c3nnn[nH]3)ccc2N2CCCc3ccccc32)on1 [Example 366, 1-(4-(3,4-Dihydroquinolin-1(2H)-yl)-2′-(1H-tetrazol-5-yl)-[1,1′-biphenyl]-3-yl)-3-(3-methylisoxazol-5-yl)urea]",5010
16,"O=C(Nc1ccc(F)cc1F)Nc1cc(-c2ccccc2-c2nnn[nH]2)ccc1N(CCC(F)(F)F)Cc1ccc(F)cc1 [Example 324, 1-(2,4-difluorophenyl)-3-(4-((4-fluorobenzyl) (3,3,3-trifluoropropyl)amino)-2′-(1H-tetrazol-5-yl)-[1,1′-biphenyl]-3-yl) urea]",160
17,"Cc1ccc(NC(=O)Nc2cc(-c3cnccc3C(=O)O)ccc2N(CC(C)C)CC(C)C)cc1 [Example 151, 3-(4-(diisobutylamino)-3-(3-p-tolylureido)phenyl) isonicotinic acid]",4620
18,"Cc1ccc(NC(=O)Nc2cc(-c3ccccc3-c3nnn[nH]3)ccc2N(CCC(F)(F)F)Cc2ccccc2)cc1 [Example 10, 1-(4-(Benzyl(3,3,3-trifluoropropyl)amino)-2′-(1H-tetrazol-5-yl)-[1,1′-biphenyl]-3-yl)-3-(p-tolyl)urea]",100
19,"Cc1ccc(NC(=O)Nc2cc(-c3ccccc3-c3nnn[nH]3)ccc2N(CC(C)C)CC(C)CC(F)(F)F)cc1 (stereo not shown) [Example 27, 1-(4-(Isobutyl(4,4,4-trifluoro-2-methylbutyl)amino)-2′-(1H-tetrazol-5-yl)-[1,1′-biphenyl]-3-yl)-3-(p-tolyl)urea]",2.55
20,CC(C)CN(CC(C)C)c1ccc(-c2ccccc2-c2nnn[nH]2)cc1NC(=O)Nc1ccc(C(F)(F)F)cc1 [Example 249],140
21,"Cc1ccc(NC(=O)Nc2cc(-c3ccccc3-c3nnn[nH]3)ccc2N(CCC(F)(F)F)CC2CC2)cc1 [Example 63, 1-(4-((cyclopropylmethyl) (3,3,3-trifluoropropyl)amino)-2′-(1H-tetrazol-5-yl)biphenyl-3-yl)-3-p-tolylurea]",120
22,"COC(=O)c1cnc(NC(=O)Nc2cc(-c3ccccc3-c3nnn[nH]3)ccc2N(CC(C)C)CC(C)C)s1 [Example 144, methyl 2-(3-(4-(diisobutylamino)-2′-(1H-tetrazol-5-yl)biphenyl-3-yl)ureido)thiazole-5-carboxylate]",10
23,"CC(C)CN(CC(C)C)c1ccc(-c2ccccc2-c2nnn[nH]2)cc1NC(=O)Nc1nccs1 [Example 7, 1-(4-(Diisobutylamino)-2′-(1H-tetrazol-5-yl)biphenyl-3-yl)-3-(thiazol-2-yl)urea]",20

# Second part, the molecule after the results:
row,IC50 [nM],SMILES
1,1.81,"Cc1ccc(NC(=O)Nc2cc(-c3ccccc3-c3nnn[nH]3)ccc2N(C)C2CCCCCC2)cc1 [Example 79, 1-(4-(cycloheptyl(methyl)amino)-2′-(1H-tetrazol-5-yl)biphenyl-3-yl)-3-p-tolylurea]"
2,850,"CCN(CCOC)c1ccc(-c2ccccc2C(=O)O)cc1NC(=O)Nc1ccc(C)cc1 [Example 72, 4′-(ethyl(2-methoxyethyl)amino)-3′-(3-p-tolylureido)biphenyl-2-carboxylic acid]"
3,1.74,"CC(C)CN(c1cc(F)c(-c2ccccc2C(=O)O)cc1NC(=O)Nc1ccccc1F)C1CCCCC1 [Example 228, 4′-(cyclohexyl(isobutyl)amio-no)-2′-fluoro-5′-(3-(2-fluorophenyl)ureido) biphenyl-2-carboxylic acid]"
4,20,"CCCN(c1ccc(-c2cc(F)ccc2C(=O)O)cc1NC(=O)Nc1ccc(C)cc1)C1CCCC1 [Example 166, 4′-(cyclopentyl(propyl)amino)-5-fluoro-3′-(3-p-tolylureido) biphenyl-2-carboxylic acid]"
5,90,"Cc1ccc(NC(=O)Nc2cc(-c3ccccc3C(=O)O)ccc2N(CC(C)C)CC2CCC2)cc1 [Example 100, 4′-((cyclobutylmethyl) (isobutyl)amino)-3′-(3-p-tolylureido)biphenyl-2-carboxylic acid]"
6,4.74,"Cc1ccc(NC(=O)Nc2cc(-c3ccccc3-c3nnn[nH]3)ccc2N(CC(F)F)C2CCCCC2)cc1 [Example 194, 1-(4-(cyclohexyl(2,2-difluoroethyl)amino)-2′-(1H-tetrazol-5-yl)-[1,1′-biphenyl]-3-yl)-3-(p-tolyl)urea]"
7,210,"Cc1ccc(NC(=O)Nc2cc(-c3ccccc3C(=O)O)ccc2N(CCC(F)(F)F)CC(C)C)cc1 [Example 198, 4′-(isobutyl(3,3,3-trifluoropropyl)amino)-3′-(3-(p-tolyl)ureido)-[1,1′-biphenyl]-2-carboxylic acid]"
8,9.59,"CCCCN(c1ccc(-c2ccccc2C(=O)O)cc1NC(=O)Nc1ccc(C)cc1)C1CCCCC1 [Example 177, 4′-(butyl(cyclohexyl)amino)-3′-(3-(p-tolyl)ureido)-[1,1′-biphenyl]-2-carboxylic acid]"
9,5.49,"CCCCN(c1ccc(-c2cc(F)ccc2C(=O)O)cc1NC(=O)Nc1ccc(C)cc1)C1CCCCC1 [Example 178, 4′-(butyl(cyclohexyl)amino)-5-fluoro-3′-(3-(p-tolyl)ureido)-[1,1′-biphenyl]-2-carboxylic acid]"
10,10,"Cc1ccc(NC(=O)Nc2cc(-c3ccccc3C(=O)O)ccc2N(CCC(F)(F)F)C2CCCCC2)cc1 [Example 197, 4′-(cyclohexyl(3,3,3-trifluoropropyl)amino)-3′-(3-(p-tolyl)ureido)-[1,1′-biphenyl]-2-carboxylic acid]"
11,1.38,"CC(C)CN(c1ccc(-c2ccccc2C(=O)O)cc1NC(=O)Nc1ccccc1F)C1CCC(F)(F)CC1 [Example 510, 4′-((4,4-Difluorocyclohexyl)(isobutyl)amino)-3′-(3-(2-fluorophenyl)ureido)-[1,1′-biphenyl]-2-carboxylic acid]"
12,2.52,Cc1ccc(NC(=O)Nc2cc(-c3ccccc3C(=O)O)c(F)cc2N(CC(C)C)C2CCCCC2)cc1 [Example 225]
13,3.68,"CCCN(c1ccc(-c2cc(F)ccc2C(=O)O)cc1NC(=O)Nc1ccc(C)cc1)C1CCCCC1 [Example 87, 4′-(cyclohexyl (propyl)amino)-5-fluoro-3′-(3-p-tolylureido) biphenyl-2-carboxylic acid]"
14,130,"Cc1ccc(NC(=O)Nc2cc(-c3ccccc3C(=O)O)ccc2N(Cc2ccccc2)CC(F)F)cc1 [Example 20, 4′-(Benzyl(2,2-difluoroethyl)amino)-3′-(3-(p-tolyl)ureido)-[1,1′-biphenyl]-2-carboxylic acid]"
